pIC50: −log10 of the molar value. Like-named read-outs stand apart in the source and are kept apart here. Blank lines part the entries; values can stand above or below the compound they belong to.
What was measured:
[1] = system: A2780 human ovarian carcinoma cell line; assay: cells
Method: (§1) Growth inhibition (using the sulforhodamine B assay) was determined for ZDO473 alone, and combined either simultaneously or administered sequentially (following washing) for 24 hours with paclitaxel. The effect of the drug combinations was analysed using median effect analysis.

[2] = system: CH1 human ovarian carcinoma cell line; assay: cells; details: read-out: IC50 growth inhibition
Method: as §1

[3] = system: A2780cisR acquired cisplatin resistant subline; assay: Growth inhibition (sulforhodamine B assay), A2780cisR; type: cell-based, human; details: for pIC50: A2780cisR, drug alone
Method: as §1

[4] = system: A2780 E6 (A2780 subline transfected with E6 human papillomavirus gene); assay: Growth inhibition (sulforhodamine B assay), A2780E6; type: cell-based
41McisR ovarian line = details: resistance to cisplatin due to reduced uptake
[5] = monotherapy Phase I trial, interim results; cited from earlier work
human tumour xenografts = assay: In-vivo studies in human tumour xenografts; details: compared with cisplatin
ADJ/PC6cisR tumour = assay: Murine acquired cisplatin resistant tumour; details: tumour totally resistant to other platinum agents
[6] = system: cisplatin-resistant CH1 ovarian tumour xenograft; assay: Cisplatin-resistant CH1 ovarian tumour xenograft; details: even when progressing on cisplatin treatment

pIC50 ([1]; Homo sapiens, A2780, read-out: IC50 growth inhibition): 8.60
pIC50 ([2]; Homo sapiens, Ovarian carcinoma cell): 8.51
pIC50 ([3]; Homo sapiens): 8.46
pIC50 ([4]; Homo sapiens, A2780/E6, drug alone): 7.68
SMILES: CC(=O)O[C@H]1C(=O)[C@@]2(C)[C@H]([C@H](OC(=O)c3ccccc3)[C@]3(O)C[C@H](OC(=O)[C@H](O)[C@@H](NC(=O)c4ccccc4)c4ccccc4)C(C)=C1C3(C)C)[C@]1(OC(C)=O)CO[C@@H]1C[C@@H]2O [Paclitaxel, paclitaxel, reference compound]

SMILES: Cc1ccccn1.N.[Cl-].[Cl-].[Pt+2] [ZDO473, (SP-4-3)-(cis-amminedichloro-[2-methylpyridine]platinum (II)]
pIC50 ([1]; read-out: IC50 growth inhibition, A2780, 96 hour continuous exposure, drug alone): 5.43
pIC50 ([2]; CH1, 96 hour continuous exposure, drug alone): 5.48
cross-resistance of A2780cisR ([3]; A2780cisR versus A2780): 4.2 fold
pIC50 ([3]; 96 hour continuous exposure): 4.81
pIC50 ([4]; 96 hour continuous exposure, drug alone): 5.07
recommended dose for phase II studies, initial (every 3 weeks): 120 mg/m^2
current recommended dose (patients who tolerate higher doses): 150 mg/m^2
antitumour activity in patients (small & non-small cell lung cancer, mesothelioma, head and neck, breast and ovarian cancers): Evidence of antitumour activity has been observed
ability to overcome cisplatin resistance (41McisR ovarian line): showed the ability to overcome resistance
dose-limiting toxicity [5]: bone marrow suppression
kidney or nerve toxicity [5]: no evidence of kidney or nerve toxicity
activity in human tumour xenografts (human tumour xenografts): at least comparable and in some cases superior to that of cisplatin
activity against acquired cisplatin resistant murine tumour (ADJ/PC6cisR tumour): some activity was seen
activity versus cisplatin-resistant xenograft [6]: Activity was retained

SMILES: N.N.[Cl][Pt][Cl] [cisplatin, cis-dichlorodiammine platinum (II), reference compound]
acquired cisplatin resistance of subline ([3]; A2780cisR versus A2780): 15 fold
